{"source": "patent US20240058403A1", "about": "“YEAST PARTICLES FOR DELIVERY OF WATER-ACTIVATED SELF-EMULSIFYING CANNABINOID FORMULATIONS” (UNIVERSITY OF MASSACHUSETTS, priority 2022, published 2024)", "key": {"[1]": {"conditions": "hydrophilic-lipophilic balance; cited from earlier work"}, "[2]": {"assay": "Stability of CBD-SA-RA o/w emulsions", "assay_type": "physicochemical", "conditions": "for Stable CBD-OA-RA o/w emulsion: 1 mg/mL in water by sonication, room temperature for 30 minutes, precipitate/phase partitioning = unstable; for Stable CBD o/w emulsion: 1 mg/mL in water, room temperature 30 minutes"}, "[3]": {"assay": "Sustained CBD release from GLPs with sequestering/release agents in simulated saliva", "assay_type": "physicochemical", "description": "GLPs were loaded at a weight ratio of CBD:OA:GLP of 2:1:1. […] Aliquots (200 μL) were collected at 1, 3, 6 and 24 h and the samples were centrifuged to separate supernatant (released CBD fraction) and GLP pellet. Released CBD was quantified in the supernatants by HPLC as described before.\nThe effect of addition of RAs to CBD with OA as SA was tested.\nGLPs were loaded with CBD, OA and various RAs. Release assays were performed by the procedure described as before.\n[…] Aliquots (200 μL) were collected at 1, 3, 6 and 24 h and the samples were centrifuged to separate supernatant (released CBD fraction) and GLP pellet. Released CBD was quantified in the supernatants by HPLC as described before."}, "[4]": {"assay": "Physical state of THC-UDA-RA mixture at room temperature", "assay_type": "physicochemical", "description": "Various RAs were tested as described before for their ability to stabilize micelles formed when GLPs encapsulate THC as the payload and UDA as the SA."}, "[5]": {"assay": "Sustained THC release from GLP-THC-UDA with or without RA in simulated saliva + tissue", "assay_type": "physicochemical", "conditions": "simulated saliva + tissue at 37° C.; 1 to 24 h", "description": "GLPs were loaded at a weight ratio of CBD:OA:GLP of 2:1:1. Dry GLP-CBD (5 mg) were resuspended in 1 mL of simulated saliva, a 75-100 mg piece of simulated tissue was added to the sample and incubated at 37° C. with constant mixing. Aliquots (200 μL) were collected at 1, 3, 6 and 24 h and the samples were centrifuged to separate supernatant (released CBD fraction) and GLP pellet. Released CBD was quantified in the supernatants by HPLC as described before.\nThe effect of addition of RAs to THC with UDA as SA was tested. Release assays were performed as described as before."}, "[6]": {"assay": "Maximum solubility of surfactants in OA or UDA", "assay_type": "physicochemical"}, "[7]": {"assay": "Fast release of cannabinoids from GLPs embedded in adjuvant, simulated saliva with or without tissue, 1 minute", "assay_type": "physicochemical", "conditions": "for cannabinoid release from GLP in 1 minute: cannabinoid loaded alone, no release agent; for THC released in 1 minute: 37° C.", "description": "Composition of simulated saliva was 0.72 g/L potassium chloride, 0.22 g/L calcium chloride dihydrate, 0.68 g/L potassium phosphate monobasic, 0.866 g/L sodium phosphate dibasic, 1.5 g/L potassium bicarbonate, 0.06 g/L potassium thiocyanate, and 0.03 g/L citric acid. Samples of dry GLP-THC (4 mg) were resuspended in 1 mL of (A) water, (B) dry glycerin or (C) SEDDS mixture (3.3 mg/mL lecithin in 3% MCT in glycerin). The GLP THC suspensions were diluted with simulated saliva (25% simulated saliva+75% GLP THC in solvent mixture) with and without the addition of a sample of 75-100 mg fat tissue. The samples were incubated for 1 minute at 37° C., and then the fractions were separated to quantify THC in the GLP pellet (THC not released), THC in supernatant (released) and THC in the tissue (released from GLP and absorbed by the tissue). The THC absorbed in the tissue was extracted in 100% methanol and the THC remaining in GLPs was extracted in 80% ethanol-20% water. The THC in all fractions was quantified by HPLC.\nGLPs were loaded with a THC:GLP weight ratio of 1:1 and embedded in different solvents. THC release was achieved and quantified as described before (FIG. 9).\nGLPs were loaded with a THC and undecanoic acid as a release agent (RA). Loaded GLPs were embedded in adjuvants (water, glycerin or SEDDS mixture). THC release was achieved and quantified as described before (FIG. 9).\nGLPs were loaded with a CBD, CBN or CBG and octanoic acid as a RA. Loaded GLPs were embedded in adjuvant water or SEDDS mixture. Cannabinoid release was achieved and quantified as described before for THC (FIG. 9)."}, "[8]": {"assay": "Micelle size of CBD-SA-RA emulsions", "assay_type": "physicochemical"}, "[9]": {"assay": "Release of oleamide from GLPs in simulated saliva with or without tissue", "assay_type": "physicochemical", "description": "The release of oleamide encapsulated in GLPs using octanoic acid or undecanoic acid as loading solvent or as leave-in solvent was tested. To perform the release assay, the GLP-oleamide suspensions were diluted with simulated saliva (25% simulated saliva+75% GLP in solvent mixture) with and without the addition of a sample of 75-100 mg fat tissue. […], and then the fractions were separated to quantify oleamide in the GLP pellet (unreleased oleamide), oleamide in the supernatant (released) and oleamide in the tissue (released from GLP and absorbed by the tissue). The oleamide absorbed in the tissue was extracted in 100% methanol and the oleamide remaining in GLPs was extracted in 80% ethanol-20% water. The oleamide in all fractions was quantified by HPLC. […] Oleamide was released at a low efficiency (2%) from GLPs with simulated saliva and higher efficiency (34-40%) with simulated saliva and tissue. The addition of UA as the leave-in solvent increased OA release from 34% to 46% in 5 minutes and from 40% to 58% with simulated saliva and tissue"}, "S. cerevisiae": {"system": "S. cerevisiae", "conditions": "by enhancing potassium leakage and disrupting membrane fluidity; cited from earlier work"}, "H. pylori": {"system": "H. pylori", "conditions": "cited from earlier work"}, "C. albicans": {"system": "C. albicans", "conditions": "by enhancing potassium leakage and disrupting membrane fluidity; cited from earlier work"}, "[10]": {"conditions": "CBD-SA-RA emulsion, RA TRITON X100 20 % w/w"}}, "note": "Entries after “also recorded” stand apart in the source; their conditions may differ. Read-outs that look alike come from different tables or passages of the source.", "data": [{"compound": "TRITON ™ X-100", "values": [{"measurement": "HLB", "setting": "[1]", "value": 13.5}, {"measurement": "Stable CBD-OA-RA o/w emulsion", "setting": "[2]", "value": "Yes"}, {"measurement": "Stable CBD-OA-RA o/w emulsion", "setting": "[2]; listed as TRITON™ X-100", "value": "form stable micelles"}, {"measurement": "fold increase of CBD release compared to GLP-CBD-OA control sample", "setting": "[3]; GLP-CBD-OA-RA, simulated saliva with tissue", "value": "1.7-2.0 fold"}, {"measurement": "effect of RA on sustained CBD release from GLP-CBD-OA", "setting": "[3]; simulated saliva with tissue, 1 to 6 hours", "value": "improvement of sustained release from 1 to 6 hours"}, {"measurement": "Physical State of THC-UDA-RA mixture at room temperature", "setting": "[4]", "value": "mixture of oil and solid UDA"}, {"measurement": "Physical State of THC-UDA-RA mixture at room temperature", "setting": "[4]; listed as TRITONTM X-100", "value": "Solid"}, {"measurement": "effect of RA on sustained THC release from GLP-THC-UDA", "setting": "[5]", "value": "did not improve sustained release from 1 to 6 h; also recorded: yielded high THC release at the 24 hour time point"}, {"measurement": "Maximum solubility in OA", "setting": "[6]", "value": 20, "unit": "% w/w"}, {"measurement": "Maximum solubility in UDA", "setting": "[6]", "value": 37.5, "unit": "% w/w"}]}, {"compound": "CCCCCc1cc(O)c2c(c1)OC(C)(C)c1ccc(C)cc1-2", "note": "[CBN, cannabinol]", "values": [{"measurement": "cannabinoid release from GLP in 1 minute", "setting": "[7]", "value": "do not release efficiently"}]}, {"compound": "TWEEN 20", "values": [{"measurement": "HLB", "setting": "[1]", "value": 16.7}, {"measurement": "Stable CBD-OA-RA o/w emulsion", "setting": "[2]", "value": "No"}, {"measurement": "Maximum solubility in OA", "setting": "[6]", "value": 20, "unit": "% w/w"}]}, {"compound": "CCCCCCCC(=O)O", "note": "[Octanoic acid]", "values": [{"measurement": "Stable CBD o/w emulsion", "setting": "[2]; CBD-SA emulsion without RA", "value": "No"}, {"measurement": "Stable CBD o/w emulsion", "setting": "[2]; [10]", "value": "Yes"}, {"measurement": "CBD-SA-RA micelle size (nm)", "setting": "[8]; without RA", "value": 379, "unit": "nm"}]}, {"compound": "C=CC(C)(O)CCC=C(C)CCC=C(C)C", "note": "(stereo not shown) [Nerolidol]", "values": [{"measurement": "Stable CBD o/w emulsion", "setting": "[2]; CBD-SA emulsion without RA", "value": "No"}, {"measurement": "Stable CBD o/w emulsion", "setting": "[2]; [10]", "value": "Yes"}, {"measurement": "total CBD release at 24 hours", "setting": "[3]; SA plus TRITON X-100 as RA, simulated saliva + tissue at 37° C.", "value": 37, "unit": "%"}, {"measurement": "course of CBD release with SA and TRITON X-100 as RA", "setting": "[3]; simulated saliva + tissue at 37° C.", "value": "did not lead to CBD release in the first 6 hours"}, {"measurement": "CBD-SA-RA micelle size (nm)", "setting": "[8]; RA TRITON X100 20 % w/w", "value": 661, "unit": "nm"}, {"measurement": "CBD-SA-RA micelle size (nm)", "setting": "[8]; without RA", "value": 1260, "unit": "nm"}]}, {"compound": "CCCCCCCC/C=C\\CCCCCCCC(N)=O", "note": "[Oleamide, oleamide]", "values": [{"measurement": "% oleamide Released", "setting": "[9]; simulated saliva (no tissue), 1 hour", "value": 2, "unit": "%"}, {"measurement": "% oleamide Released", "setting": "[9]; simulated saliva + tissue, 5 minutes", "value": 34, "unit": "%"}, {"measurement": "% oleamide Released", "setting": "[9]; simulated saliva + tissue, 1 hour", "value": 40, "unit": "%"}, {"measurement": "oleamide release efficiency", "setting": "[9]; simulated saliva and tissue, 5 minutes to 1 hour", "value": "34-40%"}]}, {"compound": "CCCCCc1cc(O)c(C/C=C(\\C)CCC=C(C)C)c(O)c1", "note": "[CBG, cannabigerol]", "values": [{"measurement": "cannabinoid release from GLP in 1 minute", "setting": "[7]", "value": "do not release efficiently"}]}, {"compound": "C=C(C)[C@@H]1CCC(C)=C[C@H]1c1c(O)cc(CCCCC)cc1O", "note": "[CBD, cannabidiol, reference compound]", "values": [{"measurement": "cannabinoid release from GLP in 1 minute", "setting": "[7]", "value": "do not release efficiently"}, {"measurement": "time after which CBD release plateaued", "setting": "[3]; GLPs CBD:OA:GLP 2:1:1, OA as SA, simulated saliva", "value": 6, "unit": "h"}, {"measurement": "CBD released after 24 h incubation", "setting": "[3]; GLPs CBD:OA:GLP 2:1:1, OA as SA, simulated saliva (without simulated tissue), 37° C.", "value": "≤ 25", "unit": "%"}]}, {"compound": "TWEEN 80", "values": [{"measurement": "HLB", "setting": "[1]", "value": 15}, {"measurement": "Stable CBD-OA-RA o/w emulsion", "setting": "[2]", "value": "No"}, {"measurement": "Maximum solubility in OA", "setting": "[6]", "value": 25, "unit": "% w/w"}]}, {"compound": "CCCCCc1cc(O)c2c(c1)OC(C)(C)[C@@H]1CCC(C)=C[C@@H]21", "note": "[THC, tetrahydrocannabinol]", "values": [{"measurement": "THC released in 1 minute", "setting": "[7]; GLPs (THC:GLP 1:1) embedded in SEDDS mixture (lecithin/MCT/glycerin), simulated saliva with tissue", "value": "up to 53%"}, {"measurement": "THC released in 1 minute", "setting": "[7]; GLPs (THC:GLP 1:1) embedded in SEDDS mixture (lecithin/MCT/glycerin), simulated saliva without tissue", "value": "Up to 30%"}, {"measurement": "THC released in 1 minute", "setting": "[7]; GLPs (THC:GLP 1:1) embedded in glycerin, simulated saliva containing tissue", "value": "Up to 30%"}]}, {"compound": "CC(C)=CCC/C(C)=C/CO", "note": "[Geraniol]", "values": [{"measurement": "growth inhibition", "setting": "S. cerevisiae", "value": "inhibit the growth"}, {"measurement": "concentration that inhibited in vitro growth", "setting": "H. pylori", "value": 2, "unit": "mg/L"}, {"measurement": "growth inhibition", "setting": "C. albicans", "value": "inhibit the growth"}]}]}
